Some results are limits rather than exact numbers.

The subject of one assay is Karpas 422 cells. Description: Karpas 422 cell viability, CTG (Cell Titre Glo) assay. Format: cell-based, human. The settings on record: Homo sapiens; Inhibition of proliferation of Karpas 422 cells (EZH2 Y641N); viability measured Day 4, Day 7 or Day 11, time point of the tabulated values not stated. As for the experimental part:
Karpas 422 cell line is a human B cell non-Hodgkin's lymphoma cell line established from a patient having DLBCL. This EZH2 heterozygotic cell line expresses a mutant form of EZH2 enzyme (Y641N) that increases histone H3 methylation and this mutation has been implicated in the tumorgenesis of lymphomas, such as DLBCL.
Karpas 422 cells (PHE cat no., 06101702) were cultured in RPMI medium supplemented with 20% fetal bovine serum and 1% penicillin/1% streptomycin and plated at a density of 1000 cells/90 µl/well in 96 well white assay plates. A dose response curve for compounds of the present invention was determined by adding a 10µl aliquot of stock solutions of varying concentrations of compounds to the same medium in each well, over a concentration range of 10µM using 3-fold dilutions to a final concentration of 1.5nM. The plates were incubated at 37° C for predetermined time periods, Day 4, Day 7, or Day 11, and the viability of the cells was measured using a CTG assay kit (Cell Titre Glo; Promega cat.no G7573) on Day 4 and Day 7 in accordance with the manufacturer's instructions.
For the viability assay for the Day 11 plates, the plates were subjected to centrifugation at 1100 rpm for five minutes on Day 7 and the supernatant was removed by aspiration. The cells were resuspended in 90 µl aliquot of the appropriate growth medium lacking the compound followed by addition of 10 µl of a 10X stock of the same compound at the same concentration. The viability of the Day 11 cells was measured using the CTG assay kit described above in accordance with the manufacturer's instructions. The IC50 values for each compound at each predetermined time point were calculated using Graph pad PRISM software and the results are shown in Table 15. A = ≤250 nM; B = […] - ≤500 nM; and C = >500 nM.

Assay [1] concerns the target purified human, His-tagged PRC2 complex (Homo sapiens, UniProt O75530+Q15910). Briefly: Hot Spot HMT assay: inhibition of PRC2 enzymatic activity (transfer of tritiated methyl from SAM to core histone, filter binding). The settings on record: Inhibition of PRC2-mediated enzymatic activity; 10 nM PRC2 complex, 0.05 mg/ml core histone H3, 1 uM 3H-SAM, 1 hr at 30°C. Type of assay: biochemical. In a few lines:
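Serial compound dilutions starting at 1.0 µM were pre-incubated 20 min at 30°C with 10 nM complex (His-EZH2, Flag-EED, His-SUZ12, His-AEBP2, His-RbAp48) and 0.05 mg/ml core H3. Reaction ran 1 hr at 30°C after adding 1 uM [3H]-SAM; scintillation counting followed filtration.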

purified human, His-tagged PRC2 complex, sequence (Q15910 whole entry): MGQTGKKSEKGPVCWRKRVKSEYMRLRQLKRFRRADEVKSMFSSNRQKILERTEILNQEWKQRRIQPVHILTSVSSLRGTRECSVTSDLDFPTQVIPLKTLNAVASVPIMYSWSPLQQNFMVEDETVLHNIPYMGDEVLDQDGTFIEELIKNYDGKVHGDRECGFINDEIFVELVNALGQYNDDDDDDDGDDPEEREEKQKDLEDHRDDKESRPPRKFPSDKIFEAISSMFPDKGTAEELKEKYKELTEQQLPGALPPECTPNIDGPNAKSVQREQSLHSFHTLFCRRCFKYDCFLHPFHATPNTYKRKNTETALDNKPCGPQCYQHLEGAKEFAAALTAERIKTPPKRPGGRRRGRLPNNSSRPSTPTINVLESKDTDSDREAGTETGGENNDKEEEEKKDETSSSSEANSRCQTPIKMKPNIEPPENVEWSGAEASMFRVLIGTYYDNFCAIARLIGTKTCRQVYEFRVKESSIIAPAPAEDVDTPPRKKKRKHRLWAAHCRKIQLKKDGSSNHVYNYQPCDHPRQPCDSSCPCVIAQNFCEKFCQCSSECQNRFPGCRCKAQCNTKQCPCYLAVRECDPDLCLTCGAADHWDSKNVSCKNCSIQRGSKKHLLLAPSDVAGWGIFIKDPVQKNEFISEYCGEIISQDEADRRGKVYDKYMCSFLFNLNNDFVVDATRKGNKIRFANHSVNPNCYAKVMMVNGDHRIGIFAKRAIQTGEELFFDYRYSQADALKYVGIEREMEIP
purified human, His-tagged PRC2 complex, sequence (O75530 whole entry): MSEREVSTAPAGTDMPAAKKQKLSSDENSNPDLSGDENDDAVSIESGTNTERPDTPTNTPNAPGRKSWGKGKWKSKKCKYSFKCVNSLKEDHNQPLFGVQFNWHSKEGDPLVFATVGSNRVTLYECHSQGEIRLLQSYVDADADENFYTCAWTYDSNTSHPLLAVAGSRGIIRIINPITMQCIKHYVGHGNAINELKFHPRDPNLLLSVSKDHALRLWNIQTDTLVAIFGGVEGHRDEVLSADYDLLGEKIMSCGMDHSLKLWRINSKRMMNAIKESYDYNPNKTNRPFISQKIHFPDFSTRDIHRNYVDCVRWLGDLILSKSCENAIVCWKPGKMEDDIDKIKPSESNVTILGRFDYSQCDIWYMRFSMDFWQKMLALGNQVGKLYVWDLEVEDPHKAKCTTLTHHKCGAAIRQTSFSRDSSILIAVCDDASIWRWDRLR
purified human, His-tagged PRC2 complex, sequence (Q15022 whole entry partner): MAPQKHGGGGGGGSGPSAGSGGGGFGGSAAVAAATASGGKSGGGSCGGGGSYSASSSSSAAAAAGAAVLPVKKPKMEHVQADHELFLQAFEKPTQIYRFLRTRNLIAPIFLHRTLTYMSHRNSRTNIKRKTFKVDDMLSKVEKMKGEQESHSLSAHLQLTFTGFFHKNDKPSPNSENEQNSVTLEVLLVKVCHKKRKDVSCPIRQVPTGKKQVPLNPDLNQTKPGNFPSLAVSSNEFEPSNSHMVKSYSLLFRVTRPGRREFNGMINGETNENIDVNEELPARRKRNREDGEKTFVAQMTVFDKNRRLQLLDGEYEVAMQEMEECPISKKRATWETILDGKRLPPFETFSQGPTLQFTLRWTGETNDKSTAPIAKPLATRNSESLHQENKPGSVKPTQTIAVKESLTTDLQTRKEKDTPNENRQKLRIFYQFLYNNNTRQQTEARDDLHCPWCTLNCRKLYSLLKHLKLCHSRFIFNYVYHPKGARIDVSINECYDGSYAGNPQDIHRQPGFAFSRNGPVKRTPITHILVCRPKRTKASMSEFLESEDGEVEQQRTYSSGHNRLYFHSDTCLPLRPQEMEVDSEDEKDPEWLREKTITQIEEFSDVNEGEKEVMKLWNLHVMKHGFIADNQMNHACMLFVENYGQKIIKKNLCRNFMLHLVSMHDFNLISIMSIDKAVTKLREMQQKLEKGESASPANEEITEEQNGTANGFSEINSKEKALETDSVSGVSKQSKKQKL
purified human, His-tagged PRC2 complex, sequence (Q6ZN18 whole entry partner): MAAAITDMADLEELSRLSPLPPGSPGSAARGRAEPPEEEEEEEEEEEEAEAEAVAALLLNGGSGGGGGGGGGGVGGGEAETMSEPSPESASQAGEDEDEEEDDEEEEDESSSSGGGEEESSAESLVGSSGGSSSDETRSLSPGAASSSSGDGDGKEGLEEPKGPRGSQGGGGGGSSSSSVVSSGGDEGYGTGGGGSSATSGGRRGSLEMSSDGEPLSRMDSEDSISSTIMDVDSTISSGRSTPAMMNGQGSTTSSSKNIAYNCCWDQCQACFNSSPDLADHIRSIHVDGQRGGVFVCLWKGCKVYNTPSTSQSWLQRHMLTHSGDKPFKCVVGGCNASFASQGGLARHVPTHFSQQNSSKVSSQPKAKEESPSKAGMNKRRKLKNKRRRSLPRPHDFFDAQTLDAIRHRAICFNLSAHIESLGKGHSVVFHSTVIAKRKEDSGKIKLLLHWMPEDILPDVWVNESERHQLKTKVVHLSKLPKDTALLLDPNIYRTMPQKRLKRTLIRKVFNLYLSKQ
purified human, His-tagged PRC2 complex, sequence (Q09028 whole entry partner): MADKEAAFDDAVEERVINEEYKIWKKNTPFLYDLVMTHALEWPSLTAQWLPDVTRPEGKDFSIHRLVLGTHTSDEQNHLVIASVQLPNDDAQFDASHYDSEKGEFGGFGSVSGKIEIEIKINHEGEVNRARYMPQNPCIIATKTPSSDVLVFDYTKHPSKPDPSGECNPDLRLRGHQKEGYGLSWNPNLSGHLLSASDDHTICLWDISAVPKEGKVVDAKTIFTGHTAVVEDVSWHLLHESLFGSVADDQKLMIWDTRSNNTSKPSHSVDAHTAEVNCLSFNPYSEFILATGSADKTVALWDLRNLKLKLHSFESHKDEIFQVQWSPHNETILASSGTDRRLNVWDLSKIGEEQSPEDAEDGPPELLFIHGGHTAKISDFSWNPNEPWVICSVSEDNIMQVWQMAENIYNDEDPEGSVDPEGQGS

Take `CN(C)C(=O)c1c(F)cc(-c2cnc(NCc3c(F)ccc4c3CCO4)n3cc(C#N)nc23)cc1F` [Example 45, 4-(2-cyano-5-(((5-fluoro-2,3-dihydrobenzofuran-4-yl)methyl)amino)imidazo[1,2-c]pyrimidin-8-yl)-2,6-difluoro-N,N-dimethylbenzamide]: the IC50 is at most 250 nM in the assay on Karpas 422 cells and below 100 nM in assay [1].

As for `COC1CCN(Cc2ccc(-c3cnc(NCc4c(F)ccc5c4CCO5)n4cc(C#N)nc34)cc2)C1` (centres unmarked) [Example 53, 5-(((5-fluoro-2,3-dihydrobenzofuran-4-yl)methyl)amino)-8-(4-((3-methoxypyrrolidin-1-yl)methyl)phenyl)imidazo[1,2-c]pyrimidine-2-carbonitrile], the IC50 was at most 250 nM in the assay on Karpas 422 cells and below 100 nM in assay [1].

As to `N#Cc1cn2c(NCc3c(F)ccc4c3CCO4)ncc(-c3ccc(CN4CCC(F)C4)cc3)c2n1` (centres unmarked) [Example 54, 5-(((5-fluoro-2,3-dihydrobenzofuran-4-yl)methyl)amino)-8-(4-((3-fluoropyrrolidin-1-yl)methyl)phenyl)imidazo[1,2-c]pyrimidine-2-carbonitrile], the IC50 was at most 250 nM in the assay with Karpas 422 cells and below 100 nM in assay [1].

Regarding `CNS(=O)(=O)c1ccc(-c2cnc(NCc3c(F)ccc4c3CCO4)n3cc(C#N)nc23)cc1` [Example 59, 4-(2-cyano-5-(((5-fluoro-2,3-dihydrobenzofuran-4-yl)methyl)amino)imidazo[1,2-c]pyrimidin-8-yl)-N-methylbenzenesulfonamide], the IC50 is 250 to 500 nM in the assay with Karpas 422 cells and below 100 nM in assay [1].

With `N#Cc1cn2c(NCc3c(F)ccc4c3CCO4)ncc(-c3cccnc3C(F)F)c2n1` [Example 64, 8-(2-(difluoromethyl)pyridin-3-yl)-5-(((5-fluoro-2,3-dihydrobenzofuran-4-yl)methyl)amino)imidazo[1,2-c]pyrimidine-2-carbonitrile], the IC50 in the assay with Karpas 422 cells was 250 to 500 nM; in assay [1] it was below 100 nM.

For `Cc1nn(C[C@H](C)O)c(C)c1-c1cnc(NCc2c(F)ccc3c2CCO3)n2cc(C#N)nc12` [Example 65, (S)-5-(((5-fluoro-2,3-dihydrobenzofuran-4-yl)methyl)amino)-8-(1-(2-hydroxypropyl)-3,5-dimethyl-1H-pyrazol-4-yl)imidazo[1,2-c]pyrimidine-2-carbonitrile], the IC50 in the assay with Karpas 422 cells is above 500 nM; in assay [1], 100 to 500 nM.

With `Cc1nn(C)cc1-c1cnc(NCc2c(F)ccc3c2CCO3)n2cc(C#N)nc12` [Example 72, 8-(1,3-dimethyl-1H-pyrazol-4-yl)-5-(((5-fluoro-2,3-dihydrobenzofuran-4-yl)methyl)amino)imidazo[1,2-c]pyrimidine-2-carbonitrile], the IC50 was above 500 nM with Karpas 422 cells and below 100 nM in assay [1].

For the compound `CS(=O)(=O)c1ccc(-c2cnc(NCc3c(F)ccc4c3CCO4)n3cc(C#N)nc23)cc1` [Example 73, 5-(((5-fluoro-2,3-dihydrobenzofuran-4-yl)methyl)amino)-8-(4-(methylsulfonyl)phenyl)imidazo[1,2-c]pyrimidine-2-carbonitrile], the results for the IC50 (in the assay on Karpas 422 cells; in assay [1]) were at most 250 nM and below 100 nM, respectively.

On to `Cc1cc(CN(C)C)c(F)cc1-c1cnc(NCc2c(F)ccc3c2CCO3)n2cc(C#N)nc12` [Example 84, 8-(4-((dimethylamino)methyl)-5-fluoro-2-methylphenyl)-5-(((5-fluoro-2,3-dihydrobenzofuran-4-yl)methyl)amino)imidazo[1,2-c]pyrimidine-2-carbonitrile], for which the IC50 in the assay on Karpas 422 cells was at most 250 nM; in assay [1], 100 to 500 nM.

Consider `COc1ncc(-c2cnc(NCc3c(F)ccc4c3CCO4)n3cc(C#N)nc23)c(C)n1` [Example 88, 5-(((5-fluoro-2,3-dihydrobenzofuran-4-yl)methyl)amino)-8-(2-methoxy-4-methylpyrimidin-5-yl)imidazo[1,2-c]pyrimidine-2-carbonitrile], for which the 50% inhibitory concentration (IC50) is at most 250 nM with Karpas 422 cells and below 100 nM in assay [1].

With `Cc1nc(OC(C)C)ncc1-c1cnc(NCc2c(F)ccc3c2CCO3)n2cc(C#N)nc12` [Example 89, 5-(((5-fluoro-2,3-dihydrobenzofuran-4-yl)methyl)amino)-8-(2-isopropoxy-4-methylpyrimidin-5-yl)imidazo[1,2-c]pyrimidine-2-carbonitrile], the figures for the IC50 (in the assay with Karpas 422 cells; in assay [1]) were at most 250 nM and below 100 nM, respectively.

For `Cc1cncc(-c2cnc(NCc3c(F)ccc4c3CCO4)n3cc(C#N)nc23)c1` [Example 96, 5-(((5-fluoro-2,3-dihydrobenzofuran-4-yl)methyl)amino)-8-(5-methylpyridin-3-yl)imidazo[1,2-c]pyrimidine-2-carbonitrile], the IC50 was 250 to 500 nM in the assay with Karpas 422 cells and below 100 nM in assay [1].

As for `N#Cc1cn2c(NCc3c(F)ccc4c3CCO4)ncc(-c3cncc(F)c3)c2n1` [Example 97, 5-(((5-fluoro-2,3-dihydrobenzofuran-4-yl)methyl)amino)-8-(5-fluoropyridin-3-yl)imidazo[1,2-c]pyrimidine-2-carbonitrile], the values for the IC50 (in the assay with Karpas 422 cells; in assay [1]) were at most 250 nM and below 100 nM, respectively.

`Cc1ccncc1-c1cnc(NCc2c(F)ccc3c2CCO3)n2cc(C#N)nc12` [Example 98, 5-(((5-fluoro-2,3-dihydrobenzofuran-4-yl)methyl)amino)-8-(4-methylpyridin-3-yl)imidazo[1,2-c]pyrimidine-2-carbonitrile]: the results for the IC50 (in the assay on Karpas 422 cells; in assay [1]) were at most 250 nM and below 100 nM, respectively.

Consider `N#Cc1cn2c(NCc3c(F)ccc4c3CCO4)ncc(-c3cccnc3)c2n1` [Example 100, 5-(((5-fluoro-2,3-dihydrobenzofuran-4-yl)methyl)amino)-8-(pyridin-3-yl)imidazo[1,2-c]pyrimidine-2-carbonitrile], for which the figures for the IC50 (in the assay on Karpas 422 cells; in assay [1]) were at most 250 nM and below 100 nM, respectively.

Consider `N#Cc1cn2c(NCc3c(F)ccc4c3CCO4)ncc(-c3cnn(C4COC4)c3)c2n1` [Example 106, 5-(((5-fluoro-2,3-dihydrobenzofuran-4-yl)methyl)amino)-8-(1-(oxetan-3-yl)-1H-pyrazol-4-yl)imidazo[1,2-c]pyrimidine-2-carbonitrile], for which the IC50 in the assay with Karpas 422 cells was above 500 nM; in assay [1], 100 to 500 nM.

In the case of `N#Cc1cn2c(NCc3c(F)ccc4c3CCO4)ncc(-c3cnn(CC(F)(F)F)c3)c2n1` [Example 108, 5-(((5-fluoro-2,3-dihydrobenzofuran-4-yl)methyl)amino)-8-(1-(2,2,2-trifluoroethyl)-1H-pyrazol-4-yl)imidazo[1,2-c]pyrimidine-2-carbonitrile], the IC50 with Karpas 422 cells is at most 250 nM; in assay [1], below 100 nM.

Regarding `Cc1ncncc1-c1cnc(NCc2c(F)ccc3c2CCO3)n2cc(C#N)nc12` [Example 110, 5-(((5-fluoro-2,3-dihydrobenzofuran-4-yl)methyl)amino)-8-(4-methylpyrimidin-5-yl)imidazo[1,2-c]pyrimidine-2-carbonitrile], the IC50 in the assay with Karpas 422 cells is at most 250 nM; in assay [1], below 100 nM.

Take `CN(C)Cc1ccc(-c2cnc(NCc3c(F)ccc4c3CCO4)n3cc(C#N)nc23)cc1` [Example 112, 8-(4-((dimethylamino)methyl)phenyl)-5-(((5-fluoro-2,3-dihydrobenzofuran-4-yl)methyl)amino)imidazo[1,2-c]pyrimidine-2-carbonitrile]: the IC50 in the assay with Karpas 422 cells is at most 250 nM; in assay [1], below 100 nM.

Regarding `COc1cc(-c2cnc(NCc3c(F)ccc4c3CCO4)n3cc(C#N)nc23)ccn1` [Example 113, 5-(((5-fluoro-2,3-dihydrobenzofuran-4-yl)methyl)amino)-8-(2-methoxypyridin-4-yl)imidazo[1,2-c]pyrimidine-2-carbonitrile], the results for the IC50 (with Karpas 422 cells; in assay [1]) were above 500 nM and below 100 nM, respectively.

`Cn1nccc1-c1cnc(NCc2c(F)ccc3c2CCO3)n2cc(C#N)nc12` [Example 114, 5-(((5-fluoro-2,3-dihydrobenzofuran-4-yl)methyl)amino)-8-(1-methyl-1H-pyrazol-5-yl)imidazo[1,2-c]pyrimidine-2-carbonitrile]: the IC50 was at most 250 nM in the assay with Karpas 422 cells and below 100 nM in assay [1].

Take `CN1CCN(C(=O)c2ccc(-c3cnc(NCc4c(F)ccc5c4CCO5)n4cc(C#N)nc34)cc2)CC1` [Example 115, 5-(((5-fluoro-2,3-dihydrobenzofuran-4-yl)methyl)amino)-8-(4-(4-methylpiperazine-1-carbonyl)phenyl)imidazo[1,2-c]pyrimidine-2-carbonitrile]: the IC50 with Karpas 422 cells was at most 250 nM; in assay [1], below 100 nM.

Usually IC50 stands for the concentration that gives 50% inhibition. Higher therefore signals lower potency.

These data come from patent EP4043466B1, “PRC2 INHIBITORS” (Mirati Therapeutics, Inc., priority 2018, dated 2019).
